Data reported in patent US11634419B2, “Dimethyl amino azetidine amides as JAK inhibitors” (THERAVANCE BIOPHARMA R&D IP, LLC, priority 2018, dated 2023).

Assays:
[1] = Pharmacokinetics in plasma and lung in mouse; type: in vivo; details: single oral aspiration, 0.2 mg/mL, 50 μL
Description: Plasma and lung concentrations of test compounds and ratios thereof were determined in the following manner. BALB/c mice from Charles River Laboratories were used in the assay. Test compounds were individually formulated in 20% propylene glycol in pH 4 citrate buffer at a concentration of 0.2 mg/mL and 50 μL of the dosing solution was introduced into the trachea of a mouse by oral aspiration. At various time points (typically 0.167, 2, 6, 24 hr) post dosing, blood samples were removed via cardiac puncture and intact lungs were excised from the mice.

Lung S9 metabolism = type: in vitro ADME, human; details: for Compound Remaining at 60 min (%): human lung S9, 1 μM compound, 1 mg/mL S9 protein, NADPH and PAPS; for Sulfate Appearance: qualitative, O-sulfate metabolite peak in human lung S9
Description: The time 0, 15, 30, and 60 minute samples were analyzed for parent compound by high resolution LC-MS/MS. Lung S9 fractions from human (lot 1410245) were purchased from XenoTech LLC (Lenexa, Kans.). NADPH (Sigma Aldrich, N1630) and 3-phosphoadenosine 5-phosphosulfate (PAPS) (Sigma Aldrich, A1651) were purchased from Sigma Aldrich (St. Louis, Mo.). Acetonitrile and water were obtained from VWR (Radnor, Pa.) and were of HPLC grade or better. Raloxifene and formic acid was purchased from Sigma Aldrich (St. Louis, Mo.). Lung S9 incubations were performed in a water bath at 37° C. in a 96-well polypropylene plate. […] Louis, Mo.), 3 mM magnesium chloride (Sigma Aldrich, M1028) and in the presence of 100 μM PAPS (Sigma-Aldrich, St. […] Incubation volumes consisted of 400 μL and time points were taken at 0, 15, 30, and 60 minutes by the removal of a 70 μL aliquot and dilution into 140 μL acetonitrile (0% formic acid). All samples were centrifuged at 2250 g for 10 minutes at 5° C. Supernatant (50 μL) was taken from the centrifuged samples and diluted into 100 μL HPLC water containing internal standard. The samples were run on a Dionex Ultimate 3000 Auto sampler and analyzed using a Thermo Q-Exactive High Resolution Mass Spectrometer (Thermo, Waltham, Mass.) in Full Scan mode in conjunction with an Atlantis T3 column 3 μM−2.1×50 mm (Waters Inc., 186003717). Mobile Phase A consisted of Water+0.2% formic acid and Mobile Phase B consisted of acetonitrile+0.2% formic acid. Peak integration was accomplished using Gubbs GMSU software (Gubbs Inc., Alpharetta, Ga.). For each sample, peak area ratios were calculated by dividing the analyte peak area by the internal standard peak area. For each incubation, the peak area ratios of the analytes in each t0 was set to 100%, and the peak areas ratios from the 60 minute samples were converted to percentages remaining relative to the corresponding t0. Determination of sulfate metabolite formation was made qualitatively by observation of early-eluting peak in the parent ion channel which, based on historical internal data, corresponded to the O-sulfate metabolite of each parent compound.

[2] = test system: IFNγ secretion in mixed lymphocyte reaction; assay: Inhibition of IFNγ secretion in a mixed lymphocyte reaction assay; type: cell-based, human; details: summary statement
Description: The mixed lymphocyte reaction assay is an in-vitro assay that mimics transplant rejection. T cells from one donor are cultured with allogeneic dendritic cells from another donor. This reaction induces a cellular immune response such as IFNγ secretion. CD14+ monocytes were isolated from human whole blood (Stanford blood center) of donor A using a ficoll gradient and magnetic seperation (CD14 microbeads, Miltenyi). […] Cells were harvested, washed with media, re-suspended to 400,000 cells/ml in media and plated at 10,000 cells/well/25 μl. CD4+ T cells were freshly isolated from human whole blood (Stanford blood center) of donor B using a ficoll gradient and magnetic separation (CD4+ T cell isolation kit, Miltenyi). T cells were re-suspended to 4,000,000 cells/ml in RPMI (Life Technologies) supplemented with 10% Fetal Bovine Serum (FBS, Life Technologies), 2 mM Glutamax (Life Technologies), 25 mM HEPES (Life Technologies) and 1× Pen/Strep (Life Technologies). CD4+ T cells were mixed with the dendritic cells at 100,000 cells/well/25p. […] On day 5, supernatants were collected and measured for interferon gamma (INFγ) using enzyme linked immunosorbent assay (ELISA). Percent inhibition was determined by compound inhibitory potency against IFNγ secretion compared to vehicle treated cells. […]

human JAK1 = human JAK1 (Homo sapiens (Human), UniProt P23458); assay: Co-crystal structure with JAK1; details: resolution 2.28 Å
Chain of human JAK1 (P23458 whole entry): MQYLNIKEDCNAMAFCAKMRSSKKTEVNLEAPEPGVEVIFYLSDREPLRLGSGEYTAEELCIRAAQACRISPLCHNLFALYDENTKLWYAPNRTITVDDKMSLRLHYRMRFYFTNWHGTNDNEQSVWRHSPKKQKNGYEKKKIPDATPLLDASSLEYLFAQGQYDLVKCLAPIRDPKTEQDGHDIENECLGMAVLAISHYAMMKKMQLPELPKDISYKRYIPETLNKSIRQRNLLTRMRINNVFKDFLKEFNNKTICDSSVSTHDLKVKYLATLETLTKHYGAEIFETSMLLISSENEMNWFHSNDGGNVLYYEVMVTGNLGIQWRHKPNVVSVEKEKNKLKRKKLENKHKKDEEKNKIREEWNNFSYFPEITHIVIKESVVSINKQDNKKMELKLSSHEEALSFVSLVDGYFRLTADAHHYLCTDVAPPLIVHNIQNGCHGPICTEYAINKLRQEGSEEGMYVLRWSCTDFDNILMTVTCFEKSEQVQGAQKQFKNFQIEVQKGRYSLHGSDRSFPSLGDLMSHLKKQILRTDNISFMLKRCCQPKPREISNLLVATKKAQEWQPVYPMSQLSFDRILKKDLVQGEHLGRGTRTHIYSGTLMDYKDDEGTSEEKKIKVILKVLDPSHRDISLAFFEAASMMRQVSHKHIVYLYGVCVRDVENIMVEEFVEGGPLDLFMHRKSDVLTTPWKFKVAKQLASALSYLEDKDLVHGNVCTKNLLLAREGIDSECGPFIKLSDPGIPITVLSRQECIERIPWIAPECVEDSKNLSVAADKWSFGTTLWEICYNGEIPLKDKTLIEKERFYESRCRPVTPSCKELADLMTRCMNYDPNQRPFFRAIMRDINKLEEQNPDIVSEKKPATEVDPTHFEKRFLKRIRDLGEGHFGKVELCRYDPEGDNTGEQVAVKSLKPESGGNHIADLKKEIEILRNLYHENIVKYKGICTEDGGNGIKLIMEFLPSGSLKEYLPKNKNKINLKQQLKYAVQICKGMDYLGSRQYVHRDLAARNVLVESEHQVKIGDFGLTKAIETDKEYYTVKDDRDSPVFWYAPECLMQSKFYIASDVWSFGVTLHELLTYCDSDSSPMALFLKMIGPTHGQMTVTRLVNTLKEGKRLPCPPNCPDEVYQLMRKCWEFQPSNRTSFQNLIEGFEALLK
Source text: A co-crystal structure was obtained of compound C-1 bound to human JAK1 at a resolution of 2.28 Å. […] Seven specific hydrogen bonding interactions were identified based upon a distance of 3.5 Å or less between donor and acceptor atoms. Of particular note, a hydrogen bonding interaction was identified between the carbonyl of the exocyclic amide of the compound of C-1 and the sidechain of Arg879 of JAK1. A similar interaction can be expected for the compounds of the invention.

SMILES	Plasma AUC(0-24) [1] [ng·h/mL]	Compound Remaining at 60 min (%) (Lung S9 metabolism)	Sulfate Appearance (Lung S9 metabolism)	binding site observed in co-crystal structure (human JAK1)	inhibition of IFNγ secretion in mixed lymphocyte reaction (in words) [2]
CCc1cc(O)ccc1-c1ccc2c(-c3nc4c([nH]3)CN(C(C)C)[C@H](C(=O)N3CC(N(C)C)C3)C4)n[nH]c2c1 [Compound 1, (S)-(3-(dimethylamino)azetidin-1-yl)(2-(6-(2-ethyl-4-hydroxyphenyl)-1H-indazol-3-yl)-5-isopropyl-4,5,6,7-tetrahydro-3H-imidazo[4,5-c]pyridin-6-yl)methanone]	943	81	Yes	–	effectively inhibit IFNγ secretion
CCc1cc(O)ccc1-c1ccc2c(-c3nc4c([nH]3)CN(CC)[C@H](C(=O)N3CC(N(C)C)C3)C4)n[nH]c2c1 [Compound 2, (S)-(3-(dimethylamino)azetidin-1-yl)(5-ethyl-2-(6-(2-ethyl-4-hydroxyphenyl)-1H-indazol-3-yl)-4,5,6,7-tetrahydro-3H-imidazo[4,5-c]pyridin-6-yl)methanone]	–	98	Yes	–	–
CCc1cc(O)ccc1-c1ccc2c(-c3nc4c([nH]3)CN(CC)[C@H](C(=O)N3CC(C)(N(C)C)C3)C4)n[nH]c2c1 [Compound 3, (S)-(3-(dimethylamino)-3-methylazetidin-1-yl)(5-ethyl-2-(6-(2-ethyl-4-hydroxyphenyl)-1H-indazol-3-yl)-4,5,6,7-tetrahydro-3H-imidazo[4,5-c]pyridin-6-yl)methanone]	–	97	Yes	–	–
CCc1cc(O)ccc1-c1ccc2c(-c3nc4c([nH]3)CN(C(C)C)[C@H](C(=O)N3CC(C)(N(C)C)C3)C4)n[nH]c2c1 [Compound 4, (S)-(3-(dimethylamino)-3-methylazetidin-1-yl)(2-(6-(2-ethyl-4-hydroxyphenyl)-1H-indazol-3-yl)-5-isopropyl-4,5,6,7-tetrahydro-3H-imidazo[4,5-c]pyridin-6-yl)methanone]	–	100	Yes	–	–
CCCN1Cc2[nH]c(-c3n[nH]c4cc(-c5ccc(O)cc5CC)ccc34)nc2C[C@H]1C(=O)N1CC(N(C)C)C1 [Compound 5, (S)-(3-(dimethylamino)azetidin-1-yl)(2-(6-(2-ethyl-4-hydroxyphenyl)-1H-indazol-3-yl)-5-propyl-4,5,6,7-tetrahydro-3H-imidazo[4,5-c]pyridin-6-yl)methanone]	–	96	Yes	–	–
CCCN1Cc2[nH]c(-c3n[nH]c4cc(-c5ccc(O)cc5CC)ccc34)nc2C[C@H]1C(=O)N1CC(C)(N(C)C)C1 [Compound 6, (S)-(3-(dimethylamino)-3-methylazetidin-1-yl)(2-(6-(2-ethyl-4-hydroxyphenyl)-1H-indazol-3-yl)-5-propyl-4,5,6,7-tetrahydro-3H-imidazo[4,5-c]pyridin-6-yl)methanone]	–	90	Yes	–	–

More lines, main results first:

Plasma AUC(0-24) [1] [ng·h/mL]	Compound Remaining at 60 min (%) (Lung S9 metabolism)	Sulfate Appearance (Lung S9 metabolism)	binding site observed in co-crystal structure (human JAK1)	SMILES	inhibition of IFNγ secretion in mixed lymphocyte reaction (in words) [2]
–	6	Yes	bind in the ATP binding site	CCc1cc(O)c(F)cc1-c1ccc2c(-c3nc4c([nH]3)CN(C(C)C)[C@H](C(=O)N3CC(N(C)C)C3)C4)n[nH]c2c1 [Compound C-1, (S)-(3-(dimethylamino)azetidin-1-yl)(2-(6-(2-ethyl-5-fluoro-4-hydroxyphenyl)-1H-indazol-3-yl)-5-isopropyl-4,5,6,7-tetrahydro-3H-imidazo[4,5-c]pyridin-6-yl)methanone, reference compound]	–
–	6	Yes	–	CCc1cc(O)c(F)cc1-c1ccc2c(-c3nc4c([nH]3)CN(CC)[C@H](C(=O)N3CC(N(C)C)C3)C4)n[nH]c2c1 [Compound C-2, (S)-(3-(dimethylamino)azetidin-1-yl)(5-ethyl-2-(6-(2-ethyl-5-fluoro-4-hydroxyphenyl)-1H-indazol-3-yl)-4,5,6,7-tetrahydro-3H-imidazo[4,5-c]pyridin-6-yl)methanone, reference compound]	–
–	5	Yes	–	CCc1cc(O)c(F)cc1-c1ccc2c(-c3nc4c([nH]3)CN(CC)[C@H](C(=O)N3CC(C)(N(C)C)C3)C4)n[nH]c2c1 [Compound C-3, (S)-(3-(dimethylamino)-3-methylazetidin-1-yl)(5-ethyl-2-(6-(2-ethyl-5-fluoro-4-hydroxyphenyl)-1H-indazol-3-yl)-4,5,6,7-tetrahydro-3H-imidazo[4,5-c]pyridin-6-yl)methanone, reference compound]	–
–	4	Yes	–	CCc1cc(O)c(F)cc1-c1ccc2c(-c3nc4c([nH]3)CN(C(C)C)[C@H](C(=O)N3CC(C)(N(C)C)C3)C4)n[nH]c2c1 [Compound C-4, (S)-(3-(dimethylamino)-3-methylazetidin-1-yl)(2-(6-(2-ethyl-5-fluoro-4-hydroxyphenyl)-1H-indazol-3-yl)-5-isopropyl-4,5,6,7-tetrahydro-3H-imidazo[4,5-c]pyridin-6-yl)methanone, reference compound]	–
–	5	Yes	–	CCCN1Cc2[nH]c(-c3n[nH]c4cc(-c5cc(F)c(O)cc5CC)ccc34)nc2C[C@H]1C(=O)N1CC(N(C)C)C1 [Compound C-5, (S)-(3-(dimethylamino)azetidin-1-yl)(2-(6-(2-ethyl-5-fluoro-4-hydroxyphenyl)-1H-indazol-3-yl)-5-propyl-4,5,6,7-tetrahydro-3H-imidazo[4,5-c]pyridin-6-yl)methanone, reference compound]	–
–	4	Yes	–	CCCN1Cc2[nH]c(-c3n[nH]c4cc(-c5cc(F)c(O)cc5CC)ccc34)nc2C[C@H]1C(=O)N1CC(C)(N(C)C)C1 [Compound C-6, (S)-(3-(dimethylamino)-3-methylazetidin-1-yl)(2-(6-(2-ethyl-5-fluoro-4-hydroxyphenyl)-1H-indazol-3-yl)-5-propyl-4,5,6,7-tetrahydro-3H-imidazo[4,5-c]pyridin-6-yl)methanone, reference compound]	–
